Laboratory results reported in BindingDB's records for patent US11111233 (Shenzhen Targetrx, 2021).
pIC50: −log10 of the molar value.

Assays:
[1] = molecular target: Epidermal growth factor receptor (Homo sapiens, UniProt P00533); assay: Kinase Inhibition Assay
Method: (§1) Then, it was diluted in DMSO with a 3-fold series gradient dilution for 10 times. […] The corresponding substrate and ATP were added and reacted at room temperature for 20 minutes (in which a negative and a positive control were set: the negative control is blank and the positive control is erlotinib). […] The inhibitions of the enzyme activity by the compounds at different concentrations were then fitted using Graphpad 5.0 software according to the four-parameter equation, and the IC50 values were calculated.

[2] = molecular target: Epidermal growth factor receptor [T790M,L858R] (Homo sapiens, UniProt P00533, L858R/T790M); assay: Kinase Inhibition Assay
Epidermal growth factor receptor [T790M,L858R], sequence (P00533 25-1210 T790M/L858R limits assumed): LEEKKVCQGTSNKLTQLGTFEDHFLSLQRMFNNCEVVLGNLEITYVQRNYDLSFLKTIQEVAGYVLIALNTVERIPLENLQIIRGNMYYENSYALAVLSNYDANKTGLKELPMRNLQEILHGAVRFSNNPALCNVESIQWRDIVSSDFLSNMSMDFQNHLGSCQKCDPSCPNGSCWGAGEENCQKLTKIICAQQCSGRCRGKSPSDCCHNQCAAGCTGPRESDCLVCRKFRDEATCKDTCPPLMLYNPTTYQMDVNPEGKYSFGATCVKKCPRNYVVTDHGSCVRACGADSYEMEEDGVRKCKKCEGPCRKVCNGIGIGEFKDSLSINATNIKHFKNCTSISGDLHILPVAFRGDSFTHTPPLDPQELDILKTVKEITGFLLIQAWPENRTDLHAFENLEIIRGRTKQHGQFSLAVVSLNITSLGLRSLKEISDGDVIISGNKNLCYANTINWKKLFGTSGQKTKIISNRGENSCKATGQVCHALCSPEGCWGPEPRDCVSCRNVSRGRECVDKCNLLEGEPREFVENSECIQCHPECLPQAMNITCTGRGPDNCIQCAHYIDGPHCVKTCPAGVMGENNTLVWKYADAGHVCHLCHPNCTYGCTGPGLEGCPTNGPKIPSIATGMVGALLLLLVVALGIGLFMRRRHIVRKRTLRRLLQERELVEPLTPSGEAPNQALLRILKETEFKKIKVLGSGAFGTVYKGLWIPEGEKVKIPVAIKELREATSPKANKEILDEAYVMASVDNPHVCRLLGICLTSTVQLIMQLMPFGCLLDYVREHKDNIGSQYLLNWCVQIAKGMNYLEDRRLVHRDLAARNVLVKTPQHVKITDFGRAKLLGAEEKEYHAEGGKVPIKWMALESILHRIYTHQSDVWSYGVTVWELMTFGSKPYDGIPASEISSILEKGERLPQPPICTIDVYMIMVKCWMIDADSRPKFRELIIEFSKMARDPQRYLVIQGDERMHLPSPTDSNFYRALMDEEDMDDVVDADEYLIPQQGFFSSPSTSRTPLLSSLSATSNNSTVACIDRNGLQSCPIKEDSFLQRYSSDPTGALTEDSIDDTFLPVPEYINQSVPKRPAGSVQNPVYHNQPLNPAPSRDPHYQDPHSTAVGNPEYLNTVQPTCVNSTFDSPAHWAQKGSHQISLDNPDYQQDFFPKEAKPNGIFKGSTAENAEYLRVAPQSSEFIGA
Method: as §1

Epidermal growth factor receptor, sequence (P00533 whole entry): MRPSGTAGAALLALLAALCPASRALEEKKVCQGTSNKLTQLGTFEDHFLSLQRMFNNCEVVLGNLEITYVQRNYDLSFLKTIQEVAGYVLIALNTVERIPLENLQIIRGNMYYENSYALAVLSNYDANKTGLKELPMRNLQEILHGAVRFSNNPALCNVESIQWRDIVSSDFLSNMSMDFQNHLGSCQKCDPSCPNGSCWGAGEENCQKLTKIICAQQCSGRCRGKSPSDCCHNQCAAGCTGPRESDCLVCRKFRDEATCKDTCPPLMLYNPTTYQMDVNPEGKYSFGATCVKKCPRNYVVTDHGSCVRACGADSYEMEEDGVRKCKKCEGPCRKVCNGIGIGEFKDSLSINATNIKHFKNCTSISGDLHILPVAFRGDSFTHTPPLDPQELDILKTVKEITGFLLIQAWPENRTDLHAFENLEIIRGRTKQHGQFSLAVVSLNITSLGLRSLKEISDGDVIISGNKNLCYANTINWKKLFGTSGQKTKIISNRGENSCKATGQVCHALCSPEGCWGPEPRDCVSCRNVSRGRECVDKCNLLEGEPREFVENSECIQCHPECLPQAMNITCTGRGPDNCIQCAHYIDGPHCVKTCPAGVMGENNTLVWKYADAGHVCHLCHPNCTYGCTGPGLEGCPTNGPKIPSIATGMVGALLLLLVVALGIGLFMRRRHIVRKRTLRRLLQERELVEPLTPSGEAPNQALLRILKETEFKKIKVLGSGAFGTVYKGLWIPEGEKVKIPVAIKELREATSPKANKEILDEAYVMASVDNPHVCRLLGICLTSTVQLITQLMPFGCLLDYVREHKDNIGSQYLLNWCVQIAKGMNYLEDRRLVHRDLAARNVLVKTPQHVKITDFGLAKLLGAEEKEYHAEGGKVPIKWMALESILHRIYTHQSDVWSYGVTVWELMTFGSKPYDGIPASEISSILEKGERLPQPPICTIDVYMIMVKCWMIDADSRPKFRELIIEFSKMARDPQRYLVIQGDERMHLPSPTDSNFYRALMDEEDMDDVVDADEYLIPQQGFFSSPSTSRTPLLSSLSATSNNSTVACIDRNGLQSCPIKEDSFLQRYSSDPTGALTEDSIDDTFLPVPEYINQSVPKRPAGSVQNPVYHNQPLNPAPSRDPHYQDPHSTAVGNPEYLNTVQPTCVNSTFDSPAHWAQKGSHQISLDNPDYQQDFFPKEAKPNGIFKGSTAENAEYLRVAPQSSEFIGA

Row | SMILES | pIC50 [1] | pIC50 [2]
1 | C=CC(=O)Nc1cc(Nc2nccc(-c3cc(F)c4nc(C)n(C(C)C)c4c3)n2)c(OC)cc1N1CCOCC1 [US11111233, Example 16] | < 7.00 | –
2 | C=CC(=O)Nc1cc(Nc2nccc(-c3cc(F)c4nc(C)n(C(C)C)c4c3)n2)c(OC)cc1OCCN(C)C [US11111233, Example 12] | – | > 9.00
